Read-outs that look alike come from different tables or passages of the source.

The test system of series [1] is MB231-LN xenograft tumor. Description: MB231-LN subcutaneous xenograft tumor growth with Erlotinib treatment. It counts as in vivo, mice. The following applies: 100 mg/kg oral gavage, 6 days per week for 4 weeks.
Experimental: All raw measurements were presented as mean±SEM (standard error of the mean). Comparisons of curves between primary tumor and BLI lung metastasis growth were performed using repeated Anova analysis. Survival analysis was performed using Kaplan-Meier estimator and log-rank test. The relative hazard ratio between different groups was calculated based on Cox-proportional hazards model and presented as HR (95% CI). Other comparisons were performed using unpaired two-sided Student's t-test without equal variance assumption or nonparametric Mann-Whitney test. All statistic calculations were performed with Excel, Stata 7 and EPI info. […] For in vivo Erlotinib treatment, both control cell and UBASH3B KD MB231-LN cells were subcutaneously injected into 6-8 week female nude mice at 5×10^6 cells, followed by treatment with vehicle or Erlotinib (LC lab, #E-4007) at 100 mg/kg by oral gavage with 6 consecutive days per week for 4 weeks after average tumor volume reached around 150 mm^3. Tumors were measured by calliper three times per week and tumors volume was calculated with formula: V=W*W*L/2.
Series [2] has as its system MB231-LN. Briefly: Methylcellulose assay (anchorage-independent growth). The following applies: for EC50: Homo sapiens.
In series [3] the test system is SUM159PT-R (Paclitaxel-resistant SUM159PT) cells. Description: Cell viability assay after Paclitaxel treatment. The following applies: Paclitaxel-resistant SUM159PT with UBASH3B knockdown; 72 hrs. Format: cell-based. Here is the method:
Cell viability assay was performed and EC50 of Paclitaxel in each sample was determined and shown at the top. UBASH3B knockdown efficiency was assessed by Western blotting, shown at the bottom. *P<0.05, paired two-tailed t-test. Error bars, mean+SEM.
Cell viability was determined using CellTiter-Glo Luminescent Cell Viability Assay (Promega) as instructed by manufacturer's manual. 1000 cells were plated in 96-well plate and the readings were taken for 5 consecutive days using CellTiter-Glo kit (Promega).

Series [4] deals with UBASH3B expression. Description: Real-time PCR and Western blot analysis of UBASH3B expression. It counts as cell-based, human. The procedure:
(§1) All siRNA were designed by 1st Base Singapore except for ETS1 siRNA#1 which was referenced from a previously published paper^7. Oligo miRNA mimics and antagomirs were purchased from Dharmacon, Inc. (Chicago, Ill., USA). For transfection, 30 nM siRNAs, 15 nM miRNA mimics or 100 nM iRNA antagomirs were used to transfect cells. 48 h after transfection cell pellets were collected and subjected indicated assays.
Total RNA including small RNAs was isolated using RNeasy Mini Kit (Qiagen). The microarray hybridization was performed using the Illumina HumanHT-12 V4.0 expression beadchip, and data analysis was performed using GeneSpring software from Agilent Technologies. Microarray data reported herein have been deposited at the NCBI Gene Expression Omnibus with the accession number GSE36693. Reverse transcription and quantitative PCR assays were performed using High Capacity cDNA Archive kit and KAPA SyBr Fast qPCR kit (KAPA Biosystems), respectively. TaqMan MicroRNA assays were used to quantify the level of mature miRNAs as previously described^8. Briefly, 10 ng of total RNA was reverse-transcribed and product was subjected to TaqMan stemloop miRNA assay (Applied Biosystems). RNU6B was used to normalize the data. For quantification of mRNA levels, 18S level was used as internal control. All reactions were analyzed in an Applied Biosystems 7500 Fast. Real-Time PCR system in 96-well plate format. Real-time primer sequences are listed in Supplementary Table 2.
(§2) Western Blotting was performed as described previously^9. Anti-UBASH3B (ab34781) was purchased from Abcam. Anti-EGFR (cs2232), anti-CBL (cs2747) and anti-Pan phosphor-Tyr (cs9411) was purchased from Cell Signaling. Anti-ETS1 (sc350), anti-ZEB1 (sc-2538.8), and anti-ZEB2 (sc-48789) were obtained from Santa Cruz. Anti-Myc and anti-Actin were purchased from Roche Applied Science and Sigma-Aldrich, respectively.
A general note: In qPCR the cycle at which signal appears reflects the starting amount.

Series [5] relates to ZEB1 and ZEB2. Description: Western blot of ZEB1 and ZEB2 expression. Format: cell-based, human. Particulars: MB231 and BT549 overexpressing mimics. Here is the method: as §1, §2
In general terms: Immunoblotting shows a protein as a band on a membrane.

The subject of series [6] is UBASH3B 3'-UTR. Description: Luciferase reporter assay with UBASH3B 3'-UTR reporters. It counts as cell-based. Particulars: wild type vs miR-200a binding site mutated reporters; 40 nM mimics. Here is the method:
HCT116 cells were plated at a density of 5×10^4 cells per well in 24-well plate format and transfected with 10 ng of pMIR REPORT containing the respective miRNA responsive regions of UBASH3B 3′ UTR sequence, 40 nM of miRNA mimics and 5 ng of pRL null internal control simultaneously on the next day. At 48 h after transfection, the luciferase activities were measured using the Dual Luciferase system (Promega). All luciferase readings were first normalized to corresponding internal control pRL null Renilla luciferase readings. The resulting relative activities were further normalized to appropriate controls.
On the technique in general: In a reporter assay the amount or activity of a reporter protein is the signal.

As to `C#Cc1cccc(Nc2ncnc3cc(OCCOC)c(OCCOC)cc23)c1` [Erlotinib], the “xenograft tumor growth response to Erlotinib” value was “irresponsive” in series [1] (UBASH3B depleted tumors) and “marked growth inhibition” in series [1] (control tumors). Further, the EC50 in series [2] (read-out: EC50 of Erlotinib, MB231-LN cells with UBASH3B depletion) turned out to be 3850 nM; in series [2] (read-out: EC50 of Erlotinib, MB231-LN control cells, without UBASH3B depletion) it was 450 nM. The “sensitivity of cells to Erlotinib treatment” value in series [2] (UBASH3B-depleted MB231 with ectopic overexpression of EGFR) is “restored the sensitivity”.

With `CC(=O)O[C@H]1C(=O)[C@@]2(C)[C@H]([C@H](OC(=O)c3ccccc3)[C@]3(O)C[C@H](OC(=O)[C@H](O)[C@@H](NC(=O)c4ccccc4)c4ccccc4)C(C)=C1C3(C)C)[C@]1(OC(C)=O)CO[C@@H]1C[C@@H]2O` [Paclitaxel], the “sensitivity to Paclitaxel treatment” value in series [3] was “increased sensitivity”. Also, the EC50 in series [2] (read-out: EC50 of Paclitaxel, cells with UBASH3B depletion) was found to be 0.61 nM; in series [2] (read-out: EC50 of Paclitaxel, control cells, without UBASH3B depletion), 4.53 nM.

`N#CC(=C(/N)Sc1ccccc1N)/C(C#N)=C(\N)Sc1ccccc1N` [U0126]: the UBASH3B expression result in series [4] (MB231 cells, 5 μM, real-time PCR, indicated time points) is given as “decrease the UBASH3B expression in a time-dependent manner”.

“miR-200a: oligo miRNA mimic purchased from Dharmacon (UAACACUGUCUGGUAACGAUGU; listed as RNA, chemistry not given here)”: the “expression of ZEB1 and ZEB2” value in series [5] is “could repress”. The “targeting and inhibition of UBASH3B 3'-UTR reporter” value in series [6] was “direct and specific targeting and inhibition”. Moreover, the UBASH3B expression result in series [4] (BT549 cells, miR-200a overexpression combined with ETS1 knockdown) is given as “more pronounced downregulation”. Further, the “UBASH3B mRNA and protein expression” value in series [4] (enforced expression of mimics in invasive breast and prostate cancer cells) is recorded as “able to reduce”.

In general, EC50 refers to the midpoint of the concentration-response curve.

Values taken from patent US9334500B2, “Methods and pharmaceutical compositions for treating cancer” (Agency for Science, Technology and Research, priority 2011, dated 2016).
